Results from patent publication US7879838B2, “Heteroaryl substituted pyrazinyl-piperazine-piperidines with CXCR3 antagonist activity” (Schering Corporation, priority 2005, dated 2011).
pIC50: −log10 of the molar value.

Biological target: T1, Human CXCR3 (N-delta 4) (Homo sapiens, UniProt P49682)
T1 construct: CD8 leader (N); Flag tag; expressed in transfected cells; membranes prepared
T1 sequence (P49682 5-368 limits assumed): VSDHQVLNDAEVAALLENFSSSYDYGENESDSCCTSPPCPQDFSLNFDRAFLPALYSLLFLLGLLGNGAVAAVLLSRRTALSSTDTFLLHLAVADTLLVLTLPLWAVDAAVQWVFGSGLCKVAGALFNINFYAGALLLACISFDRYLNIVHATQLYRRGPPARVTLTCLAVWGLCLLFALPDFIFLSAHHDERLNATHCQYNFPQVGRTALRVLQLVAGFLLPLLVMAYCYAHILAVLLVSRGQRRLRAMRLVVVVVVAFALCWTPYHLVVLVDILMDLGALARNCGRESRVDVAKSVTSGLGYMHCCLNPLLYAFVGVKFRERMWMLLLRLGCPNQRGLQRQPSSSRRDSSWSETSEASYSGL
Test: Human CXCR3 (N-delta 4) scintillation proximity assay (SPA), [125I] IP-10 binding to Ba/F3-hCXCR3 membranes
Details: IC50 rating; 25 pM [125I] IP-10, membranes of Ba/F3 cells expressing human CXCR3 (N-delta 4)
Text: The inventive compounds can readily be evaluated to determine activity at The CXCR3 receptors by known methods, such as, for example, Development of Human CXCR3 (N-delta 4) Binding Assay.
Cloning and Expression of Human CXCR3 (N-delta 4):
The DNA encoding human CXCR3 was cloned by PCR using human genomic DNA (Promega, Madison, Wis.) as a template. The PCR primers were designed based on the published sequence of human orphan receptor GPR9 (1) with incorporated restriction sites, a Kozak consensus sequence, CD8 leader and Flag tag. The PCR product was subcloned into the mammalian expression vector pME18Sneo, a derivative of the SR-alpha expression vector (designated as pME18Sneo-hCXCR3 (N-delta 4).
IL-3-dependent mouse pro-B cells Ba/F3 were transfected by electroporation in 0.4 ml Dulbecco's PBS containing 4×10^6 cells with 20 μg of pME18Sneo-hCXCR3 (N-delta 4) plasmid DNA. Cells were pulsed at 400 Volts, 100 OHMs, 960 μFd. The transfected cells were under selection with 1 mg/ml G418 (Life Technologies, Gaithersburg, Md.). G418-resistant Ba/F3 clones were screened for CXCR3 expression by specific binding of [^125I] IP-10 (NEN Life Science Products, Boston, Mass.).
Preparation of Ba/F3-hCXCR3 (N-delta 4) Membranes
Ba/F3 cells expressing human CXCR3 (N-delta 4) were pelleted and resuspended in the lysis buffer containing 10 mM HEPES, pH 7.5 and Complete® protease inhibitors (1 tablet per 100 ml) (Boehringer Mannheim, Indianapolis, Ind.) at a cell density of 20×10^6 cells per ml. After 5 minutes incubation on ice, cells were transferred to 4639 cell disruption bomb (Parr Instrument, Moline, Ill.) and applied with 1,500 psi of nitrogen for 30 minutes on ice. Large cellular debris was removed by centrifugation at 1,000×g. Cell membrane in the supernatant was sedimented at 100,000×g. The membrane was resuspended in the lysis buffer supplemented with 10% sucrose and stored at −80° C. Total protein concentration of the membrane was determined by BCA method from Pierce (Rockford, Ill.).
Human CXCR3 (N-delta 4) Scintillation Proximity Assay (SPA)
For each assay point, 2 μg of membrane was preincubated for 1 hr with 300 μg wheat germ agglutinin (WGA) coated SPA beads (Amersham, Arlington Heights, Ill.) in the binding buffer (50 mM HEPES, 1 mM CaCl2, 5 mM MgCl2, 125 mM NaCl, 0.002% NaN3, 1.0% BSA) at room temperature. The beads were spun down, washed once, resuspended in the binding buffer and transferred to a 96-well Isoplate (Wallac, Gaithersburg, Md.). 25 pM of [^125I] IP-10 with tested compounds in a series of titration were added to start the reaction. After 3 hr reaction at room temperature, the amount of [^125I] IP-10 bound to the SPA beads was determined with a Wallac 1450 Microbeta counter.
The Ki values for the various example compounds of the present invention are given in the afore-mentioned Table 1. From these values, it would be apparent to the skilled artisan that the compounds of the invention have excellent utility CXCR3 antagonists.

SMILES | pIC50
CC[C@H]1CN(c2ncc(C(=O)O)nc2Cl)CCN1C1CCN(C(=O)c2ccc(Cl)nc2N)CC1 [compound 99] | < 7.00
CC[C@H]1CN(c2nc(N)c(C(=O)Nc3cc(O)[nH]n3)nc2Cl)CCN1C1CCN(C(=O)c2ccc(Cl)nc2N)CC1 [compound 100] | < 7.00
CC[C@H]1CN(c2nc(N)c(C(=O)NC(=N)n3cccn3)nc2Cl)CCN1C1CCN(C(=O)c2ccc(Cl)nc2N)CC1 [compound 101] | < 7.00
CC[C@H]1CN(c2nc(N)c(C(=O)NN)nc2Cl)CCN1C1CCN(C(=O)c2c(C)noc2C)CC1 [compound 102] | < 7.00
CC[C@H]1CN(c2nc(N)c(C(=O)NCCO)nc2Cl)CCN1C1CCN(C(=O)c2ccc(C)nc2O)CC1 [compound 103] | < 7.00
CC[C@H]1CN(c2nc(N)c(C(=O)NCCO)nc2Cl)CCN1C1CCN(Cc2ccc3nccn3c2)CC1 [compound 104] | < 7.00
CC[C@H]1CN(c2nc(NCC3CC3)c(C(=O)OC)nc2Cl)CCN1C1CCN(C(=O)c2ccc(Cl)nc2N)CC1 [compound 105] | < 7.00
CC[C@H]1CN(c2nc(N)c(C(=O)NCCO)nc2Cl)CCN1C1CCN(C(=O)c2ccc(C(N)=O)nc2N)CC1 [compound 106] | < 7.00
CC[C@H]1CN(c2nc(N)c(C(N)=O)nc2Cl)CCN1C1CCN(C(=O)c2ccc(-n3cncn3)nc2)CC1 [compound 107] | < 7.00
CC[C@H]1CN(c2nc(N)c(C(=O)NC)nc2Cl)CCN1C1CCN(Cc2cc(Cl)nc(Cl)c2)CC1 [compound 108] | < 7.00
CC[C@H]1CN(c2nc(N)c(C(=O)O)nc2Cl)CCN1C1CCN(C(=O)c2ccc(Cl)nc2N)CC1 [compound 109] | < 7.00
CC[C@H]1CN(c2nc(N)c(C(=O)NC)nc2Cl)CCN1C1CCN(C(=O)c2ccnc(Cl)c2)CC1 [compound 110] | < 7.00
CC[C@H]1CN(c2nc(N)c(C(=O)NN)nc2Cl)CCN1C1CCN(S(=O)(=O)c2c(C)noc2C)CC1 [compound 111] | < 7.00
CC[C@H]1CN(c2nc(N)c(C(=O)NC)nc2Cl)CCN1C1CCN(C(=O)c2cnc(C)cn2)CC1 [compound 112] | < 7.00
CC[C@H]1CN(c2nc(N)c(C(N)=O)nc2Cl)CCN1C1CCN(CC2COc3ccccc3O2)CC1 (stereo partly shown) [compound 113] | < 7.00
CC[C@H]1CN(c2nc(N)c(C(N)=O)nc2Cl)CCN1C1CCN(C(=O)c2ccc(Cl)n3ccnc23)CC1 [compound 114] | < 7.00
CC[C@H]1CN(c2nc(N)c(C(N)=O)nc2Cl)CCN1C1CCN(C(=O)c2ncc(C)nc2N)CC1 [compound 115] | < 7.00
CC[C@H]1CN(c2nc(N)c(C(=O)NC)nc2Cl)CCN1C1CCN(C(=O)c2cc(Cl)nc(Cl)c2)CC1 [compound 116] | < 7.00
CC[C@H]1CN(c2nc(N)c(C(=O)NCCO)nc2Cl)CCN1C1CCN(C(=O)c2nccnc2N)CC1 [compound 117] | < 7.00
CC[C@H]1CN(c2ncc(C(=O)NC(C)C)nc2Cl)CCN1C1CCN(C(=O)c2ccc(Cl)nc2N)CC1 [compound 118] | > 7.60
CC[C@H]1CN(c2ncc(C(=O)NC3CC3)nc2Cl)CCN1C1CCN(C(=O)c2ccc(Cl)nc2N)CC1 [compound 119] | > 7.60
CC[C@H]1CN(c2ncc(C(=O)NC(C)(C)C)nc2Cl)CCN1C1CCN(C(=O)c2ccc(Cl)nc2N)CC1 [compound 120] | > 7.60
CC[C@H]1CN(c2ncc(C(N)=O)nc2C(F)(F)F)CCN1C1CCN(C(=O)c2ccc(Cl)nc2N)CC1 [compound 121] | > 7.60
CC[C@H]1CN(c2ncc(C(=O)NC)nc2Cl)CCN1C1CCN(C(=O)c2ccc(Cl)nc2N)CC1 [compound 122] | > 7.60
CC[C@H]1CN(c2ncc(C(=O)NC(C)C)nc2C)CCN1C1CCN(C(=O)c2ccc(Cl)nc2N)CC1 [compound 123] | > 7.60

SMILES | pIC50
CC[C@H]1CN(c2ncc(C(=O)NCCO)nc2C)CCN1C1CCN(C(=O)c2ccc(Cl)nc2N)CC1 [compound 124] | > 7.60
CC[C@H]1CN(c2ncc(C(=O)NCCO)nc2Cl)CCN1C1CCN(C(=O)c2ccc(Cl)nc2N)CC1 [compound 125] | > 7.60
CCNC(=O)c1cnc(N2CCN(C3CCN(C(=O)c4ccc(Cl)nc4N)CC3)[C@@H](CC)C2)c(C)n1 [compound 126] | > 7.60
CC[C@H]1CN(c2ncc(C(N)=O)nc2C)[C@H](C)CN1C1CCN(C(=O)c2ccc(Cl)nc2N)CC1 [compound 128] | > 7.60
CC[C@H]1CN(c2ncc(C(N)=O)nc2C)CCN1C1CCN(C(=O)c2ccc(Cl)nc2N)CC1 [compound 129] | > 7.60
CC[C@H]1CN(c2nc(N)c(C(=O)Nc3ccncc3)nc2Cl)CCN1C1CCN(C(=O)c2ccc(Cl)nc2N)CC1 [compound 130] | > 7.60
CC[C@H]1CN(c2nc(N)c(C(=O)NC)nc2Cl)CCN1C1CCN(C(=O)c2ccc(OC)nc2N)CC1 [compound 131] | 7.00 to 7.60
CC[C@H]1CN(c2nc(N)c(C(=O)Nc3cc(C)[nH]n3)nc2Cl)CCN1C1CCN(C(=O)c2ccc(Cl)nc2N)CC1 [compound 132] | 7.00 to 7.60
CC[C@H]1CN(c2nc(N)c(C(=O)NCCO)nc2Cl)CCN1C1CCN(C(=O)c2ccc(OC)nc2N)CC1 [compound 133] | 7.00 to 7.60
CC[C@H]1CN(c2nc(N)c(C(=O)NNC(C)=O)nc2Cl)CCN1C1CCN(C(=O)c2ccc(Cl)nc2N)CC1 [compound 134] | 7.00 to 7.60
CC[C@H]1CN(c2nc(N)c(C(N)=O)nc2Cl)CCN1C1CCN(C(=O)c2ccc(OC)nc2N)CC1 [compound 135] | 7.00 to 7.60
CC[C@H]1CN(c2ncc(C(N)=O)nc2C)CCN1C1CCN(C(=O)c2ccc(C)nc2N)CC1 [compound 136] | < 7.00
CC[C@H]1CN(c2nc(N)c(C(=O)N(C)OC)nc2Cl)CCN1C1CCN(C(=O)c2ccc(Cl)nc2N)CC1 [compound 137] | < 7.00
CC[C@H]1CN(c2nc(N)c(C(=O)NCCO)nc2Cl)CCN1C1CCN(C(=O)c2ccc(C)nc2Cl)CC1 [compound 138] | < 7.00
CC[C@H]1CN(c2nc(N)c(C(=O)NC3CC3)nc2Cl)CCN1C1CCN(C(=O)c2sc(C)nc2C)CC1 [compound 139] | < 7.00
CC[C@H]1CN(c2nc(N)c(C(=O)NC)nc2Cl)CCN1C1CCN(Cc2coc3ccc(Cl)cc3c2=O)CC1 [compound 140] | > 7.60
CC[C@H]1CN(c2nc(N)c(C(=O)NC3CC3)nc2Cl)CCN1C1CCN(Cc2cc(-c3ccccc3)oc2C)CC1 [compound 141] | > 7.60
CC[C@H]1CN(c2nc(N)c(C(N)=O)nc2Cl)CCN1C1CCN(Cc2ccc(Cl)c3nc(C(F)(F)F)[nH]c23)CC1 [compound 142] | < 7.00
CC[C@H]1CN(c2nc(N)c(C(N)=O)nc2Cl)CCN1C1CCN(Cc2ccc(Cl)c3[nH]c(=O)[nH]c23)CC1 [compound 143] | < 7.00
CC[C@H]1CN(c2nc(N)c(C(=O)NC)nc2Cl)CCN1C1CCN(Cc2coc3cc(C)c(Cl)cc3c2=O)CC1 [compound 144] | > 7.60
CC[C@H]1CN(c2nc(N)c(C(=O)NC3CC3)nc2Cl)CCN1C1CCN(Cc2cnc(-c3ccccc3)nc2C)CC1 [compound 145] | < 7.00
CC[C@H]1CN(c2nc(N)c(C(N)=O)nc2Cl)CCN1C1CCN(C2OC(C(=O)N(C)C)c3cc(Cl)ccc32)CC1 (stereo partly shown) [compound 147] | 7.00 to 7.60
CC[C@H]1CN(c2nc(N)c(C(=O)NCCO)nc2Cl)CCN1C1CCN(C2CCOc3cc(C#N)ccc32)CC1 (stereo partly shown) [compound 148] | < 7.00
CC[C@H]1CN(c2nc(N)c(C(=O)Nc3ccc(Cl)cc3)nc2Cl)CCN1C1CCN(C(=O)c2ccc(Cl)nc2N)CC1 [compound 149] | > 7.60
